Converted amounts (≈) assume the structure as drawn.
What was measured:
Assay in all cases: MIC determination, microdilution method (CLSI)
Type in all cases: cell-based
[1] = test system: Streptococcus pneumoniae ATCC 49619; conditions: for MIC: Streptococcus pneumoniae, ATCC49619, Gram(+), 24 h at 37° C., read-out: MIC Sp49619
Experimental: (§1) The MICs of compounds against all bacterial strains were determined using the microdilution method according to the Clinical and Laboratory Standards Institute guidelines. Bacteria from two or three colonies were picked from freshly streaked culture plates and incubated in culture broth for 8 h. The bacterial culture was then diluted with double-concentrated culture broth to a final concentration of 5×10^5 colony-forming unit (CFU)/mL. Testing compounds were prepared by diluting the stock solution with dimethyl sulfoxide (DMSO). The diluted bacterial suspension was added to an equal volume of a drug solution in a single microwell and incubated for 24 h at 37° C. The minimum concentration in the microwells with no visible bacterial growth was defined as the MIC. All MIC determinations were repeated twice on different days. The MIC of Compounds 1 to 15 against gram(+) and gram(−) bacteria are shown as follows: […]

[2] = test system: Staphylococcus aureus ATCC 29213; conditions: for MIC: Staphylococcus aureus, ATCC29213, Gram(+), 24 h at 37° C., read-out: MIC Sa29213
Experimental: as §1

[3] = test system: Pseudomonas aeruginosa K2376; conditions: for MIC: Pseudomonas aeruginosa, K2376, Gram(−), 24 h at 37° C., read-out: MIC PaK2376
Experimental: as §1

[4] = test system: Pseudomonas aeruginosa ATCC 27853; conditions: for MIC: Pseudomonas aeruginosa, ATCC27853, Gram(−), 24 h at 37° C., read-out: MIC Pa27853
Experimental: as §1

[5] = MIC of comparative compound / MIC of Compound 1
[6] = MIC of comparative compound / MIC of Compound 2
[7] = MIC of comparative compound / MIC of Compound 6
[8] = MIC of comparative compound / MIC of Compound 7
[9] = MIC of comparative compound / MIC of Compound 8
[10] = MIC of comparative compound / MIC of Compound 11

SMILES | MIC [3] [µg/mL] | MIC [1] [µg/mL] | MIC [4] [µg/mL] | MIC [2] [µg/mL] | further results
COc1c(N2CC(C)C(N)C2)ccc2c(=O)c(C(=O)O)cn(C3CC3)c12 (stereo not shown) [A1, reference compound] | – | – | – | – | MIC difference (folds) Sp49619 [1, 5]: 64.5 folds; MIC difference (folds) Sa29213 [2, 5]: 16.1 folds
COc1c(N2CCC(C)C(N)C2)ccc2c(=O)c(C(=O)O)cn(C3CC3)c12 (stereo not shown) [A2, reference compound] | – | – | – | – | MIC difference (folds) PaK2376 [3, 5]: 32.0 folds; MIC difference (folds) Sp49619 [1, 5]: 4.0 folds; MIC difference (folds) Pa27853 [4, 5]: 32.0 folds; MIC difference (folds) Sa29213 [2, 5]: 4.0 folds
CCC1CCN(c2ccc3c(=O)c(C(=O)O)cn(C4CC4)c3c2OC)CC1N (stereo not shown) [B1, reference compound] | – | – | – | – | MIC difference (folds) PaK2376 [3, 6]: 2.0 folds; MIC difference (folds) Sp49619 [1, 6]: 1.0 folds; MIC difference (folds) Pa27853 [4, 6]: 2.0 folds; MIC difference (folds) Sa29213 [2, 6]: 8.1 folds
CCC1CCN(c2ccc3c(=O)c(C(=O)O)cn(CC(F)(F)F)c3c2OC)CC1N (stereo not shown) [B2, reference compound] | – | – | – | – | MIC difference (folds) PaK2376 [3, 6]: 4.0 folds; MIC difference (folds) Sp49619 [1, 6]: 4.0 folds; MIC difference (folds) Pa27853 [4, 6]: 16.0 folds; MIC difference (folds) Sa29213 [2, 6]: 1.0 folds
CCC1CCN(c2ccc3c(=O)c(C(=O)O)cn(CC(F)F)c3c2OC)CC1N (stereo not shown) [B3, reference compound] | – | – | – | – | MIC difference (folds) PaK2376 [3, 6]: 8.0 folds; MIC difference (folds) Sp49619 [1, 6]: 8.1 folds; MIC difference (folds) Pa27853 [4, 6]: 4.0 folds; MIC difference (folds) Sa29213 [2, 6]: 1.0 folds
COc1c(N2CC[C@H](N)C2)ccc2c(=O)c(C(=O)O)cn(C3CC3)c12 [C1, reference compound] | – | – | – | – | MIC difference (folds) Sp49619 [1, 7]: 8.0 folds; MIC difference (folds) Sa29213 [2, 7]: 4.0 folds
COc1c(N2CCC(N)C2)ccc2c(=O)c(C(=O)O)cn(C3CC3F)c12 (stereo not shown) [C2, reference compound] | – | – | – | – | MIC difference (folds) PaK2376 [3, 7]: 1.0 folds; MIC difference (folds) Sp49619 [1, 7]: 15.9 folds; MIC difference (folds) Pa27853 [4, 7]: 1.0 folds; MIC difference (folds) Sa29213 [2, 7]: 8.0 folds
COc1c(N2CC[C@H](N)C2)ccc2c(=O)c(C(=O)O)cn(C(C)CF)c12 (stereo partly shown) [C3, reference compound] | – | – | – | – | MIC difference (folds) PaK2376 [3, 7]: 4.0 folds; MIC difference (folds) Sp49619 [1, 7]: 508.0 folds; MIC difference (folds) Pa27853 [4, 7]: 16.0 folds; MIC difference (folds) Sa29213 [2, 7]: 127.0 folds
COc1c(N2CCC(C)C(N)C2)ccc2c(=O)c(C(=O)O)cn(C3CC3F)c12 (stereo not shown) [Compound 1, 7-(3-Amino-4-methyl-piperidin-1-yl)-1-(2-fluoro-cyclopropyl)-8-methoxy-4-oxo-1,4-dihydro-quinoline-3-carboxylic acid] | 1 (≈ 2.57 µM) | 0.031 (≈ 0.0796 µM) | 0.25 (≈ 0.642 µM) | 0.031 (≈ 0.0796 µM) | –
CC[C@@H]1CCN(c2ccc3c(=O)c(C(=O)O)cn([C@@H]4C[C@@H]4F)c3c2OC)C[C@H]1N [Compound 2] | 2 (≈ 4.96 µM) | 0.031 (≈ 0.0768 µM) | 0.5 (≈ 1.24 µM) | 0.031 (≈ 0.0768 µM) | –
CCC[C@@H]1CCN(c2ccc3c(=O)c(C(=O)O)cn([C@@H]4C[C@@H]4F)c3c2OC)C[C@H]1N [Compound 3] | 4 (≈ 9.58 µM) | 0.031 (≈ 0.0743 µM) | 2 (≈ 4.79 µM) | 0.031 (≈ 0.0743 µM) | –
COc1c(N2CC[C@@H](C(F)(F)F)[C@H](N)C2)ccc2c(=O)c(C(=O)O)cn([C@@H]3C[C@@H]3F)c12 [Compound 4] | 4 (≈ 9.02 µM) | 0.031 (≈ 0.0699 µM) | 4 (≈ 9.02 µM) | 0.031 (≈ 0.0699 µM) | –
COc1c(N2CC[C@@H](F)[C@H](N)C2)ccc2c(=O)c(C(=O)O)cn([C@@H]3C[C@@H]3F)c12 [Compound 5] | 16 (≈ 40.7 µM) | 0.063 (≈ 0.16 µM) | 4 (≈ 10.2 µM) | 0.063 (≈ 0.16 µM) | –
C[C@@H]1CCN(c2ccc3c(=O)c(C(=O)O)cn([C@@H]4C[C@@H]4F)c3c2Cl)C[C@H]1N [Compound 7] | 2 (≈ 5.08 µM) | 0.031 (≈ 0.0787 µM) | 2 (≈ 5.08 µM) | 0.031 (≈ 0.0787 µM) | –
CC[C@@H]1CCN(c2ccc3c(=O)c(C(=O)O)cn([C@@H]4C[C@@H]4F)c3c2Cl)C[C@H]1N [Compound 8] | 0.5 (≈ 1.23 µM) | 0.008 (≈ 0.0196 µM) | 0.125 (≈ 0.306 µM) | 0.031 (≈ 0.076 µM) | –
Cc1c(N2CCC[C@H](N)C2)ccc2c(=O)c(C(=O)O)cn([C@@H]3C[C@@H]3F)c12 [Compound 9] | 2 (≈ 5.56 µM) | 0.031 (≈ 0.0863 µM) | 0.5 (≈ 1.39 µM) | 0.031 (≈ 0.0863 µM) | –
CC[C@@H]1CCN(c2ccc3c(=O)c(C(=O)O)cn([C@@H]4C[C@@H]4F)c3c2C)C[C@H]1N [Compound 10] | 0.5 (≈ 1.29 µM) | 0.031 (≈ 0.08 µM) | 0.125 (≈ 0.323 µM) | 0.031 (≈ 0.08 µM) | –
C[C@H]1C[C@H](N)CN(c2ccc3c(=O)c(C(=O)O)cn([C@@H]4C[C@@H]4F)c3c2Cl)C1 [Compound 11] | 4 (≈ 10.2 µM) | 0.25 (≈ 0.635 µM) | 2 (≈ 5.08 µM) | 0.031 (≈ 0.0787 µM) | –
Cc1c(N2C[C@@H](C)C[C@H](N)C2)ccc2c(=O)c(C(=O)O)cn([C@@H]3C[C@@H]3F)c12 [Compound 12] | 4 (≈ 10.7 µM) | 0.125 (≈ 0.335 µM) | 1 (≈ 2.68 µM) | 0.063 (≈ 0.169 µM) | –
COc1c(N2C[C@@H](N)C[C@H](F)C2)ccc2c(=O)c(C(=O)O)cn([C@@H]3C[C@@H]3F)c12 [Compound 13] | 16 (≈ 40.7 µM) | 0.031 (≈ 0.0788 µM) | 2 (≈ 5.08 µM) | 0.063 (≈ 0.16 µM) | –
COc1c(N2CC[C@H](N)[C@@H](F)C2)ccc2c(=O)c(C(=O)O)cn([C@@H]3C[C@@H]3F)c12 [Compound 14] | 2 (≈ 5.08 µM) | 0.125 (≈ 0.318 µM) | 2 (≈ 5.08 µM) | 0.063 (≈ 0.16 µM) | –
NC1CCN(c2ccc3c(=O)c(C(=O)O)cn([C@@H]4C[C@@H]4F)c3c2Cl)CC1 [Compound 15] | 8 (≈ 21.1 µM) | 0.063 (≈ 0.166 µM) | 0.25 (≈ 0.658 µM) | 0.063 (≈ 0.166 µM) | –
CC1CCN(c2ccc3c(=O)c(C(=O)O)cn(C4CC4)c3c2Cl)CC1N (stereo not shown) [D1, reference compound] | – | – | – | – | MIC difference (folds) PaK2376 [3, 8]: 4.0 folds; MIC difference (folds) Sp49619 [1, 8]: 1.0 folds; MIC difference (folds) Pa27853 [4, 8]: 2.0 folds; MIC difference (folds) Sa29213 [2, 8]: 1.0 folds
CCC1CCN(c2ccc3c(=O)c(C(=O)O)cn(CC(F)F)c3c2Cl)CC1N (stereo not shown) [E1, reference compound] | – | – | – | – | MIC difference (folds) PaK2376 [3, 9]: 8.0 folds; MIC difference (folds) Sp49619 [1, 9]: 15.6 folds; MIC difference (folds) Pa27853 [4, 9]: 8.0 folds; MIC difference (folds) Sa29213 [2, 9]: 1.0 folds
CC1CC(N)CN(c2ccc3c(=O)c(C(=O)O)cn(C4CC4)c3c2Cl)C1 (stereo not shown) [F1, reference compound] | – | – | – | – | MIC difference (folds) PaK2376 [3, 10]: 1.0 folds; MIC difference (folds) Sp49619 [1, 10]: 2.0 folds; MIC difference (folds) Pa27853 [4, 10]: 2.0 folds; MIC difference (folds) Sa29213 [2, 10]: 1.0 folds
CC1CC(N)CN(c2ccc3c(=O)c(C(=O)O)cn(CC(F)F)c3c2Cl)C1 (stereo not shown) [F2, reference compound] | – | – | – | – | MIC difference (folds) PaK2376 [3, 10]: 4.0 folds; MIC difference (folds) Sp49619 [1, 10]: 16.0 folds; MIC difference (folds) Pa27853 [4, 10]: 4.0 folds; MIC difference (folds) Sa29213 [2, 10]: 16.1 folds

From patent US20240101527A1, “QUINOLONE CARBOXYLIC DERIVATIVES” (TAIGEN BIOTECHNOLOGY CO., LTD., priority 2019, published 2024)
